Source: patent US7410965B2, “Delayed release pharmaceutical composition containing 1-dimethyl-amino-3-(3-methoxyphenyl)-2-methyl-pentan-3-ol” (Gruenenthal GmbH, priority 2002, dated 2008)
Marks after values point to notes of the source that are not given here.

System: female Sprague-Dawley rats
Test: Cystometry test system on conscious fresh rats
Type: in vivo, rat
Conditions: for BC Bladder Capacity, change compared to the baseline value / ICI Inter-Contraction Interval, change compared to the baseline value / TP Threshold Pressure, change compared to the baseline value: effect maximum; for effect on the bladder regulation (in words): cystometry, iv
Method: Cystometry investigations were carried out on fresh female Sprague-Dawley rats according to the method of Ishizuka et al. ((1997), Naunyn-Schmiedeberg's Arch. Pharmacol. 355: 787-793). Three days after implantation of bladder and venous catheters the animals were investigated in the conscious state while freely moving. The bladder catheter was connected to a pressure gauge and an injection pump. The animals were placed in metabolic cages that enabled the volume of urine to be measured. Physiological saline solution was infused (10 ml/hour) into the emptied bladder and the bladder pressure and volume of urine were continuously recorded. After a stabilisation phase a 20-minute phase was recorded that was characterised by normal, reproducible micturition cycles. The following parameters among others were measured: • threshold pressure TP, bladder pressure immediately before micturition, • bladder capacity BC, residual volume after prior micturition plus volume of infused solution during the filling phase, • intercontraction interval ICI, i.e. the time interval between consecutive micturition.
An increase in the threshold pressure (TP) indicates an important therapeutic effect in one of the medical conditions covered by the invention. Also, the intercontraction interval (ICI) is an important parameter for measuring the physiological effectiveness of a substance in the treatment of urinary incontinence, as is the bladder capacity (BC). In this connection, on account of the widely differing causes of the symptoms of these disease patterns it is not necessary to influence positively all three parameters in order for a medicament to be effective.
After recording three reproducible micturition cycles to provide a baseline value, the test substances (1 (1.0 mg/kg), 2 (0.1; 0.3 and 0.5 mg/kg) and 21 (0.5 mg/kg), in a vehicle comprising 0.9% NaCl were applied intravenously and the effect on the cystometric parameters was recorded at 90 to 120 minutes. In the effect maximum the mean value of 3 micturition cycles was determined and recorded as a percentage change compared to the baseline value (Table 1).

SMILES | BC Bladder Capacity, change compared to the baseline value (1.0 mg/kg iv) | ICI Inter-Contraction Interval, change compared to the baseline value (1.0 mg/kg iv) | TP Threshold Pressure, change compared to the baseline value (1.0 mg/kg iv) | BC Bladder Capacity, change compared to the baseline value (0.1 mg/kg iv) | ICI Inter-Contraction Interval, change compared to the baseline value (0.1 mg/kg iv) | TP Threshold Pressure, change compared to the baseline value (0.1 mg/kg iv) | BC Bladder Capacity, change compared to the baseline value (0.3 mg/kg iv) | ICI Inter-Contraction Interval, change compared to the baseline value (0.3 mg/kg iv) | TP Threshold Pressure, change compared to the baseline value (0.3 mg/kg iv) | BC Bladder Capacity, change compared to the baseline value (0.5 mg/kg iv) | ICI Inter-Contraction Interval, change compared to the baseline value (0.5 mg/kg iv) | TP Threshold Pressure, change compared to the baseline value (0.5 mg/kg iv) | effect on the bladder regulation (in words)
CC[C@](O)(c1cccc(OC)c1)[C@H](C)CN(C)C.Cl (racemic) [Compound 1, (2RS,3RS)-1-dimethylamino-3-(3-methoxyphenyl)-2-methylpentan-3-ol; hydrochloride] | +31%*** | +42% | +94%** | – | – | – | – | – | – | – | – | – | –
CC[C@](O)(c1cccc(OC)c1)[C@H](C)CN(C)C.Cl [Compound 2, (+)-(2R,3R)-1-dimethylamino-3-(3-methoxyphenyl)-2-methylpentan-3-ol; hydrochloride] | – | – | – | +7.8% | +15.6% | +28.5%** | +33%* | +28%* | +122%** | +20.6%* | +28.6%** | +77.5%** | very effective
CC[C@@](O)(c1cccc(OC)c1)[C@@H](C)CN(C)C.Cl [Compound 21, (−)-(2S,3S)-1-dimethylamino-3-(3-methoxyphenyl)-2-methylpentan-3-ol; hydrochloride] | – | – | – | – | – | – | – | – | – | +3% | +10% | −1.1% | does not exhibit such a marked effect
